Reference: patent US8791258B2, “Pro-fluorescent probes” (The Regents of the University of California, priority 2008, dated 2014)

Tests used:
HeLa cells = type: cell-based; details: 5 μM probe; 50 nM MitoTracker Deep Red, 500 nM LysoTracker Red
Description: 100 μM H2O2 was then added to one of the petri dishes. At 20 minutes, 50 nM MitoTracker Deep Red, 500 nM Lysotracker Red, and 1 μM Hoechst 33342 were added to both dishes. After an additional 20 minutes (40 minute stimulation total), the two coverslips were put in a single, new petri dish filled with fresh DPBS and confocal images were taken (3.2 μsec pixel time, 100% laser power for 514 line, 4.1% laser power for the 633 line, 26% laser power for the 543 line, scanned using 12-bit multi-track scan mode using a constant receiver gain). Shown above are signals from MitoPY1 (a), MitoTracker Deep Red (b), LysoTracker Red (c), an overlay of MitoTracker Deep Red and MitoPY1 (d), Hoechst (e), and a brightfield image (f) of cells not treated with H2O2, as well as signals from MitoPY1 (g), MitoTracker Deep Red (h), LysoTracker Red (i), an overlay of MitoTracker Deep Red and MitoPY1 (j), Hoechst (k), and a brightfield image (l) of cells treated with H2O2. A 20 μm scale bar shown for all images.
HeLa cells incubated with 5 μM MitoPY1 for 60 min at 37° C. and imaged with MitoPY1 (a), MitoTracker Red and Hoechst (overlay, b), and MitoPY1 with MitoTracker Red (overlay, c). HeLa cells incubated with 5 μM MitoPY1 for 60 min at 37° C. with 100 μM H2O2 added for the final 40 min and imaged with MitoPY1 (d), MitoTracker Red and Hoechst (overlay, e), MitoPY1 and MitoTracker Red (overlay, f), and brightfield (g) with 20 μm scale bar. HeLa cells incubated with 5 μM MitoPY1 for 60 min at 37° C. and imaged with MitoPY1 (h), MitoTracker Red and Hoechst (overlay, i), and MitoPY1 with MitoTracker Red (overlay, j). HeLa cells incubated for 24 h with 1 mM paraquat, then washed and incubated with 5 μM MitoPY1 for 60 min at 37° C. and imaged with MitoPY1 (k), MitoTracker Red and Hoechst (overlay, l), MitoPY1 and MitoTracker Red (overlay, m), and brightfield (n) with 20 μm scale bar.
HEK293 cells were cultured in DMEM (Invitrogen) supplemented with 10% fetal bovine serum (FBS, Hyclone) and glutamine (2 mM). CHO.K1 cells were cultured in DMEM with F-12 supplements, glutamax (Invitrogen), and 5% FBS. Cos-7 cells were cultured in DMEM with high glucose, glutamax, 10% FBS, and non-essential amino acids (Invitrogen). HeLa cells were cultured in DMEM with high glucose, glutamax, and 10% FBS. Two days before imaging, cells were passaged and plated on 18-mm glass coverslips. For all experiments, solutions of dyes (from 5 mM stocks in DMSO) were made in DBPS with calcium chloride and magnesium chloride (Sigma). H2O2 was added by bath application to the medium from a 100 mM aqueous stock. For paraquat treatment, HeLa cells were cultured as described above. One day prior to imaging, 1 mM paraquat was added to cells from a 0.5 M stock solution in water. An equal amount of water was added to control cells at the same time. Cells were then incubated at 37° C., 5% CO2. After 24 hours, the media was exchanged for DPBS with 5 μM dye and incubated for 1 hour.
Confocal fluorescence imaging studies were performed with a Zeiss LSM510 NLO Axiovert 200 laser scanning microscope and a 63× Achroplan IR water-immersion objective lens. Excitation of PY-loaded cells at 510 nm was carried out with an Ar laser and emission was collected using a META detector between 527-580 nm. MitoTracker Deep Red was excited with a 633-nm line and emission was collected between 666-698 nm. LysoTracker Red was excited with a 543-nm line and emission was collected between 580-644 nm. Excitation of Hoechst 33342 was carried out using a MaiTai two-photon laser at 780-nm pulses (mode-locked Ti:sapphire laser, Tsunami Spectra Physics) and emission was collected between 452-537 nm. Image analysis was performed in Adobe Photoshop.
MitoPY1 was tested for its ability to both target the mitochondria and respond to H2O2 in living biological systems. […] Again, co-staining with MitoTracker confirms that the dye is retained in the mitochondria and detects localized rises in H2O2 concentrations.

[1] = Absorption and emission properties, fluorescence quantum yield; type: physicochemical; details: 20 mM HEPES, pH 7; for fluorescence quantum yield Φ: by reference to fluorescein; for extinction coefficient ε at 510 nm: λabs 510 nm
Description: (§1) Millipore water was used to prepare all aqueous solutions. All spectroscopic measurements were performed in 20 mM HEPES buffer, pH 7. Absorption spectra were recorded using a Varian Cary 50 spectrophotometer (Walnut Creek, Calif.). Fluorescence spectra were recorded using a Photon Technology International Quanta Master 4 L-format scanning spectrofluorometer (Lawrenceville, N.J.) equipped with an LPS-220B 75-W xenon lamp and power supply, A-1010B lamp housing with integrated igniter, switchable 814 photon-counting/analog photomultiplier detection unit, and MD5020 motor driver. Samples for absorption and fluorescence measurements were contained in 1-cm×1-cm quartz cuvettes (1.4- or 3.5-mL volume, Starna, Atascadero, Calif.).
as §1, with “recorded on” for “recorded using”, “Creek, Calif.) and fluorescence” for “Creek, Calif.). Fluorescence”, “and emission” for “and fluorescence”, “cuvettes (1.5-mL” for “cuvettes (1.4- or 3.5-mL”, “Calif.). Fluorescence quantum yields were determined by reference to fluorescein in 0.1M NaOH (Φ=0.95).” for “Calif.).”

HEK cells = assay: Confocal and two-photon fluorescence imaging of H2O2 in live HEK cells
Description: (a) Fluorescence image of HEK cells incubated with 5 μM PF1 for 5 min at 25° C. (b) Fluorescence image of PF1-stained HEK cells treated with 100 μM H2O2 for 11 min at 25° C. Excitation was provided at 488 nm, and emission was collected in a window from 505 to 580 nm. Scale bar=27 μm.
(a) Fluorescence image of HEK cells incubated with 10 μM PR1 for 10 min at 25° C. (b) Fluorescence image of PR1-stained HEK cells treated with 100 μM H2O2 for 30 min at 25° C. Excitation was provided at 543 nm, and emission was collected in a window from 548 to 644 nm. Scale bar=18 μm.
(a) Fluorescence image of HEK cells incubated with 10 μM PX1 for 2-3 min at 25° C. (b) Fluorescence image of PX1-stained HEK cells treated with 100 μM H2O2 for 30 min at 25° C. Two-photon excitation was provided at 704 nm, and emission was collected in a window from 420 to 500 nm. Scale bar=18 μm.
HEK 293T cells were cultured in Dulbecco's Modified Eagle Medium (DMEM, Invitrogen, Carlsbad, Calif.) supplemented with 10% Fetal Bovine Serum (FBS, Invitrogen), glutamine (2 mM), and penicillin/streptomycin (50 μg/ml, Invitrogen). One day before imaging, cells were passed and plated on 18-mm glass coverslips coated with poly-L-lysine (50 μg/ml, Sigma, St. Louis, Mo.). Immediately before the experiments, cells were washed with PBS buffer, incubated with the probe in PBS, and imaged.
Confocal fluorescence imaging was performed with a Zeiss LSM510 META laser scanning microscope containing an Axioplan 2 MOT upright microscope and a 40× water-immersion objective lens. Excitation of PF1-loaded cells at 488 nm was carried out with an argon ion laser, and emission was Collected in a window from 505 nm to 580 nm using a META detection system. Excitation of PR1-loaded cells at 543 nm was carried out with a HeNe laser, and emission was collected in a window from 548 nm to 644 nm using a META detector. PF1 or PR1 were incubated with live cell samples for 5 to 10 min. Addition of H2O2 (10 to 100 μM) to cell samples was performed directly on the microscope stage by bath application to the media.
Two-photon fluorescence imaging of PX1 was carried out using an inverted Zeiss LSM510 Axiovert 200M microscope with a NeoFLUAR 40×/1.3 NA oil-immersion objective lens. Samples were excited by 704-nm pulses from a mode-locked Ti:Sapphire laser (Tsunami, SpectraPhysics, 120-150 fs pulse width, 80 MHz repetition rate). The emission light was filtered with a 80-nm wide bandpass filter centered at 460 nm (460BP40, Chroma) and detected with the non-descanned detector (NDD) of the LSM510.

[2] = Fluorescence response to various ROS (H2O2 selectivity); details: 20 mM HEPES, pH 7, 25° C.
Description: (§2) FIG. 7 is the fluorescence response of 5 μM PF1 to various ROS (10 mM O2^−, 100 μM for all other ROS). .OH and .Ot-Bu were generated by reaction of Fe^2+ with H2O2 or tert-butyl hydroperoxide (TBHP), respectively. NO was delivered using S-nitrosocysteine (SNOC). Spectra were acquired in 20 mM HEPES, pH 7, and all data were obtained after incubation with the appropriate ROS at 25° C. for 1 h. Collected emission was integrated between 460 and 700 nm (λexc=450 nm).
FIG. 8 is the fluorescence response of 5 μM PR1 to various ROS (10 mM O2^−, 100 μM for all other ROS). .OH and .O^tBu were generated by reaction of Fe^2+ with H2O2 or tert-butyl hydroperoxide (TBHP), respectively. NO was delivered using S-nitrosocysteine (SNOC). Spectra were acquired in 20 mM HEPES, pH 7, and all data were obtained after incubation with the appropriate ROS at 25° C. for 30 min. Collected emission was integrated between 570 and 800 nm (λexc=560 nm).
as §2, with “FIG. 9” for “FIG. 7”, “of 10” for “of 5”, “μM PX1” for “μM PF1”, “between 370” for “between 460”, “and 600” for “and 700”, “nm (λexc=350” for “nm (λexc=450”
as §1
FIG. 7, FIG. 8 and FIG. 9 compare the relative reactivities of boronate-based PF1, PR1, and PX1, respectively, toward various ROS.

[3] = cited from earlier work

O=C1OC2(c3ccc(O)cc3Oc3cc(N4CCN(CCCC[P+](c5ccccc5)(c5ccccc5)c5ccccc5)CC4)ccc32)c2ccccc21 (centres unmarked) [MitoPY1ox]
subcellular localization (co-staining with MitoTracker Deep Red, LysoTracker Red) (HeLa cells): only MitoPY1 targets the mitochondria | fluorescence quantum yield Φ [1]: 0.405 | extinction coefficient ε at 510 nm [1]: 22,300 M^−1 cm^−1

CC(=O)N1CCN(c2ccc3c(c2)Oc2cc(B4OC(C)(C)C(C)(C)O4)ccc2C32OC(=O)c3ccccc32)CC1 (centres unmarked) [ContPY1]
subcellular localization (co-staining with MitoTracker Deep Red, LysoTracker Red) (HeLa cells): only MitoPY1 targets the mitochondria | fluorescence quantum yield Φ [1]: 0.018 | extinction coefficient ε at 515 nm of the corresponding rhodol formed with H2O2 ([1]; after reaction with H2O2, 515 nm): 38,200 M^−1 cm^−1 | fluorescence quantum yield Φ of the corresponding rhodol formed with H2O2 ([1]; after reaction with H2O2, λem 543 nm): 0.388 | extinction coefficient ε at 404 nm ([1]; λabs 404 nm): 4,100 M^−1 cm^−1 | extinction coefficient ε at 490 nm ([1]; λabs 490 nm): 15,600 M^−1 cm^−1 | extinction coefficient ε at 510 nm [1]: 16,130 M^−1 cm^−1

CC1(C)OB(c2ccc3c(c2)Oc2cc(B4OC(C)(C)C(C)(C)O4)ccc2N3)OC1(C)C [PR1, 3,7-Bis(pinacolatoboron)phenoxazine]
intracellular background fluorescence of probe-loaded cells before H2O2 (HEK cells; 5-10 μM probe, 2-10 min at 25° C.): virtually no background fluorescence | cell viability during imaging (HEK cells; after probe incubation and H2O2 treatment, brightfield): cells are viable throughout the experiments | membrane permeability / cell entry (HEK cells; live HEK cells): membrane-permeable | intracellular fluorescence after addition of H2O2 (HEK cells; probe-loaded cells, 10-100 μM H2O2): Striking increases in intracellular red fluorescence | higher response for H2O2 over .OH ([2]; 100 μM ROS, .OH from Fe2+ with H2O2): > 200 fold | higher response for H2O2 over .OtBu ([2]; 100 μM ROS, .OtBu from Fe2+ with TBHP): > 200 fold | higher response for H2O2 over NO ([2]; 100 μM ROS, NO delivered using SNOC): > 200 fold | higher response for H2O2 over O2− ([2]; 10 mM O2−, 100 μM H2O2): > 1000 fold

O=C(O)c1ccccc1C1c2cc(Cl)c(O)cc2Oc2cc(O)c(Cl)cc21 [DCFH, 2′,7′-dichlorodihydrofluorescein]
fluorescence increase by reaction with .OH or peroxynitrite (ONOO−) ([3]; .OH or ONOO−): ca. 7000 fold | fluorescence increase upon addition of H2O2, previously reported probes ([3]; H2O2): 190 fold | fluorescence increase with NO ([3]; NO): 150 fold | fluorescence increase with O2− ([3]; O2−): 67 fold | fluorescence increase upon light-induced autoxidation ([3]; light-induced autoxidation): 2000 fold
